From patent publication US20060269594A1, “Liposomal antineoplastic drugs and uses thereof” (Inex Pharmaceuticals Corporation, priority 2000, published 2006)
Like-named read-outs stand apart in the source and are kept apart here.

Tests used:
[1] = system: MX-1 human breast carcinoma; experiment: MX-1 human breast carcinoma xenograft (s.c.), efficacy and toxicity; assay type: in vivo, nude mice
Protocol: Tumor Models. […] Human MX-1 and LX-1 cell lines were obtained from the DCTD Tumor Repository in Frederick, Md. These cell lines were received as tumor fragments and were propagated in NCr nude mice by serial transplantation of 3×3 mm fragments. Experiments were not initiated until the cell lines had been through 3 passages in nude mice and the tumor lines were restarted when the passage number reached 10.
Efficacy Studies. […] For the MX-1 and LX-1 tumor models, tumor volume was determined by repeated perpendicular measurements of tumor dimensions and using the formula: Volume (mm^3)=(L×W^2)/2

[2] = system: LX-1 human lung carcinoma; experiment: LX-1 human lung carcinoma xenograft (s.c.), efficacy and toxicity; assay type: in vivo, nude mice; settings: LX-1, single dose; free at evaluated doses <30 mg/kg
From the text: In the above formula, MTD is the maximum tolerated dose, defined as that dose that causes a mean weight loss of 20% in a group of animals; and MED is the minimal effective dose, defined as the dose that produces an optimal % T/C value of ≦40 in the solid tumor models or an % ILS of 50±10% in the survival models.

[3] = Pharmacokinetic and in vivo leakage studies; settings: plasma, ICR mice; for AUC / Cmax / clearance: mouse, iv
Protocol: 5. Pharmacokinetic and in vivo leakage studies. […] Two different drug-to-lipid ratios, i.e., 0.10 (w/w) and 0.02 (w/w), were used to examine the influence of drug-to-lipid ratio and lipid dose on drug leakage and PK behavior. Encapsulated topotecan was administered at 1 mg/kg (10 or 50 mg/kg lipid) and 5 mg/kg topotecan (50 mg/kg lipid). […] Total topotecan in blood was determined by a fluorescence assay preceded by precipitation of plasma proteins. Topotecan was quantified by spectrofluorimetry at an excitation (2.5 nm slit width) and emission wavelength (2.5 nm slit width) of 380 and 518 nm, respectively. Lipid levels in plasma were determined by liquid scintillation counting of the [^3H]-CHE label.

[4] = Myelosuppression and neutropenia studies (blood CBC and differential); assay type: in vivo, ICR mice; settings: 10 mg/kg i.v., day 3
Protocol: Myelosuppression and neutropenia studies. […] Empty vesicles were administered as a control. CBC and differential analysis was performed at Central Labs for Veterinarians (Langley, BC) to quantify cellular levels, ratios and morphology.

[5] = cited from earlier work
[6] = MX-1 s.c., single i.v. dose 5 mg/kg

CC[C@@]1(O)C(=O)OCc2c1cc1n(c2=O)Cc2cc3c(CN(C)C)c(O)ccc3nc2-1 [Free, 9-dimethylaminomethyl-10-hydroxy-camptothecin]
anti-tumor activity ([1]; MX-1, q7dx3, 5 or 10 mg/kg/dose): little activity
% T/C (optimal, following final treatment) ([1]; MX-1 s.c., q7dx3, 10 mg/kg/dose i.v.): 61%
% T/C (optimal, following final treatment) [1, 6]: 78%
T − C (tumor growth delay to 500 mm^3) [1, 6]: 0.2 days
% T/C (optimal, following final treatment) ([1]; MX-1 s.c., single i.v. dose 40 mg/kg): 24%
anti-tumor activity in initial single dose studies [2]: inactive
AUC ([3]; 1 mg/kg i.v.): 1970 ng·h/mL
Cmax ([3]; 1 mg/kg i.v.): 750 ng/mL
clearance ([3]; 1 mg/kg i.v.): 0.232 mL/min
AUC ([3]; 5 mg/kg i.v.): 2770 ng·h/mL
Cmax ([3]; 5 mg/kg i.v.): 2170 ng/mL
clearance ([3]; 5 mg/kg i.v.): 0.827 mL/min
α1/2 ([3]; 1 mg/kg i.v.): 0.14 h
α1/2 ([3]; 5 mg/kg i.v.): 0.26 h
differences in neutrophil, WBC and lymphocyte parameters [4]: No significant differences
LD10 ([5]; qdx5 schedule, converted): ~4.7 mg/kg/dose
LD10 ([5]; single intravenous infusion in mice (Hycamtin product monograph)): 75 mg/M^2
LD10 ([5]; single intravenous infusion in mice, converted): ~25 mg/kg
